Measurements as given in the supplement of paper PMC10307832.

Columns and labels:
Assay in all cases: relative viability (nuclei count vs DMSO), 5 days (fraction); higher = more cells survive
Bemcentinib + Pemetrexed = compound: Nc1nc(Nc2ccc3c(c2)CC[C@@H](N2CCCC2)CC3)nn1-c1cc2c(nn1)-c1ccccc1CCC2 [Bemcentinib] + Nc1nc2[nH]cc(CCc3ccc(C(=O)N[C@@H](CCC(=O)O)C(=O)O)cc3)c2c(=O)[nH]1 [Pemetrexed] (partner 0.2 µM)
Method in brief: (§1)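 A single step with final 0.05% Triton X-100, 1% formaldehyde and 1 ug/ml Hoechst fixed the cells and stained nuclei 5 days after treatment. Lung cancer cell lines in 1536-well plates had been treated by pin tool the day after seeding with one drug alone or a fixed anchor-drug dose plus five library-drug doses (not always all listed) in √10 steps, and nuclei were counted on 4× images. Relative viability is the ratio of nuclei in treated wells to nuclei in vehicle wells, taken as the median of duplicate plates.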

Bemcentinib + Foretinib = compound: Nc1nc(Nc2ccc3c(c2)CC[C@@H](N2CCCC2)CC3)nn1-c1cc2c(nn1)-c1ccccc1CCC2 [Bemcentinib] + COc1cc2c(Oc3ccc(NC(=O)C4(C(=O)Nc5ccc(F)cc5)CC4)cc3F)ccnc2cc1OCCCN1CCOCC1 [Foretinib] (partner 0.25 µM)
Method in brief: as §1

Bemcentinib + Navitoclax = compound: Nc1nc(Nc2ccc3c(c2)CC[C@@H](N2CCCC2)CC3)nn1-c1cc2c(nn1)-c1ccccc1CCC2 [Bemcentinib] + CC1(C)CCC(c2ccc(Cl)cc2)=C(CN2CCN(c3ccc(C(=O)NS(=O)(=O)c4ccc(N[C@H](CCN5CCOCC5)CSc5ccccc5)c(S(=O)(=O)C(F)(F)F)c4)cc3)CC2)C1 [Navitoclax] (partner 0.5 µM)
Method in brief: as §1

Bemcentinib + Dasatinib = compound: Nc1nc(Nc2ccc3c(c2)CC[C@@H](N2CCCC2)CC3)nn1-c1cc2c(nn1)-c1ccccc1CCC2 [Bemcentinib] + Cc1nc(Nc2ncc(C(=O)Nc3c(C)cccc3Cl)s2)cc(N2CCN(CCO)CC2)n1 [Dasatinib] (partner 0.075 µM)
Method in brief: as §1

Cell Line | relative viability (Bemcentinib + Pemetrexed; first compound 0.04 µM) | relative viability (Bemcentinib + Pemetrexed; first compound 0.1265 µM) | relative viability (Bemcentinib + Pemetrexed; first compound 0.4 µM) | relative viability (Bemcentinib + Pemetrexed; first compound 1.265 µM) | relative viability (Bemcentinib + Pemetrexed; first compound 4 µM) | relative viability (Bemcentinib + Foretinib; first compound 0.04 µM) | relative viability (Bemcentinib + Foretinib; first compound 0.1265 µM) | relative viability (Bemcentinib + Foretinib; first compound 0.4 µM) | relative viability (Bemcentinib + Foretinib; first compound 4 µM) | relative viability (Bemcentinib + Navitoclax; first compound 0.04 µM) | relative viability (Bemcentinib + Navitoclax; first compound 0.1265 µM) | relative viability (Bemcentinib + Navitoclax; first compound 0.4 µM) | relative viability (Bemcentinib + Navitoclax; first compound 1.265 µM) | relative viability (Bemcentinib + Navitoclax; first compound 4 µM) | relative viability (Bemcentinib + Dasatinib; first compound 0.04 µM) | relative viability (Bemcentinib + Dasatinib; first compound 0.1265 µM) | relative viability (Bemcentinib + Dasatinib; first compound 0.4 µM) | relative viability (Bemcentinib + Dasatinib; first compound 4 µM) | relative viability (Bemcentinib + Foretinib; first compound 1.265 µM) | relative viability (Bemcentinib + Dasatinib; first compound 1.265 µM)
HCC-78 | 0.923 | 1.01 | 0.942 | 0.895 | 0.95 | 0.578 | 0.486 | 0.555 | 0.562 | 0.657 | 0.792 | 0.859 | 0.943 | 0.836 | 0.403 | 0.201 | 0.433 | 0.363 | – | –
HCC-366 | 0.175 | 0.185 | 0.179 | 0.173 | 0.157 | 0.888 | 0.952 | 0.946 | 0.941 | 1.11 | 1.23 | 1.11 | 1.07 | 1.03 | 0.544 | 0.621 | 0.621 | 0.659 | 0.914 | 0.852
HCC-827 | 0.267 | 0.267 | 0.266 | 0.262 | 0.286 | 1.13 | 1.05 | 1.08 | 1.08 | 1.03 | 1.04 | 1.07 | 0.957 | 1.02 | 0.305 | 0.385 | 0.273 | 0.3 | 1.09 | 0.4
HOP-62 | 0.348 | 0.357 | 0.385 | 0.37 | 0.359 | 1.22 | 1.14 | 1.01 | 1.21 | 1.04 | 0.97 | 1.16 | 0.995 | 1.13 | 0.639 | 0.656 | 0.768 | 0.718 | 1.06 | 0.552
IA-LM | – | – | – | – | – | 1.08 | 1.25 | 0.985 | 1.09 | 0.748 | 0.988 | 0.975 | 0.841 | 0.725 | – | – | – | – | 1.08 | –
LC-2-ad | 0.252 | 0.28 | 0.258 | 0.262 | 0.273 | 0.881 | 0.964 | 1.01 | 0.969 | 0.415 | 0.547 | 0.609 | 0.536 | 0.509 | 0.308 | 0.597 | 0.659 | 0.557 | 0.927 | 0.669
LCLC-97TM1 | 0.16 | 0.177 | 0.182 | 0.177 | 0.177 | 0.941 | 0.97 | 0.929 | 1.02 | 0.398 | 0.487 | – | 0.479 | 0.636 | 0.851 | 0.818 | 0.736 | 0.975 | 0.964 | 0.851
LCLC-103H | 0.422 | 0.478 | 0.428 | 0.455 | 0.434 | 0.752 | 0.787 | 0.778 | 0.825 | – | – | – | – | – | 0.419 | 0.192 | 0.478 | 0.531 | 0.918 | 0.393
LK-2 | 0.246 | 0.323 | 0.294 | 0.256 | 0.294 | 1.51 | – | 1.29 | 1.49 | 0.755 | 0.903 | 0.994 | 0.904 | 0.904 | 0.248 | 0.246 | 0.31 | 0.349 | 1.35 | 0.27
NCI-H358 | 0.176 | 0.177 | 0.166 | 0.187 | 0.179 | 0.723 | 0.827 | 0.73 | 0.853 | – | – | – | – | – | 0.153 | 0.146 | 0.148 | 0.171 | 0.749 | 0.163
NCI-H522 | 1.03 | 0.908 | 0.897 | 1.04 | 1.18 | – | – | – | – | – | – | – | – | – | 0.768 | 0.975 | 0.886 | 0.829 | – | 0.844
NCI-H661 | 0.906 | 0.953 | 0.965 | 0.899 | 0.991 | 0.969 | 1.04 | 1.01 | 0.986 | – | – | – | – | – | 0.77 | 0.877 | 0.924 | 0.913 | 0.981 | 0.832
NCI-H727 | – | – | – | – | – | 0.881 | 1.09 | 0.935 | 1.03 | 0.348 | 0.389 | 0.435 | 0.382 | 0.522 | 0.394 | 0.4 | 0.319 | 0.441 | 0.88 | 0.337
NCI-H1299 | – | – | – | – | – | 1.09 | 1.13 | 1.13 | 1.09 | 1.02 | 1.04 | 1.05 | 1.04 | 1 | – | – | – | – | 1.13 | –
NCI-H1563 | 0.768 | 0.716 | 0.844 | 0.663 | 0.772 | 0.998 | 0.999 | 0.975 | 0.949 | – | – | – | – | – | 0.403 | 0.429 | 0.448 | 0.444 | 0.897 | 0.413
NCI-H1623 | – | – | – | – | – | 0.857 | 0.742 | 0.853 | 0.934 | – | – | – | – | – | 0.51 | 0.504 | 0.528 | 0.473 | 1.01 | 0.639
NCI-H1648 | 0.717 | 0.761 | 0.818 | 0.697 | 0.841 | – | – | – | – | – | – | – | – | – | – | – | – | – | – | –
NCI-H1703 | – | – | – | – | – | – | 0.336 | 0.377 | 0.334 | 1.08 | 1.03 | 1.34 | 1.04 | 0.85 | – | – | – | – | 0.312 | –
NCI-H1792 | 0.918 | 0.988 | 1.06 | 0.68 | 0.85 | – | – | – | – | 0.668 | 0.57 | 0.859 | 0.697 | 0.665 | 0.859 | 0.956 | 1.17 | 0.873 | – | 0.91
NCI-H2342 | 0.703 | 0.805 | 0.823 | 0.728 | 0.787 | 1.04 | 1.12 | 1.09 | 1.13 | – | – | – | – | – | 0.316 | 0.318 | 0.313 | 0.308 | 1.06 | 0.264
SW 900 | 0.492 | 0.541 | 0.485 | 0.433 | 0.48 | 0.827 | 0.948 | 0.976 | 0.974 | – | – | – | – | – | 0.587 | 0.672 | 0.586 | 0.563 | 1.05 | 0.493
